Reference: patent US12077503B2, “Substituted cyclic amides and their use as herbicides” (FMC CORPORATION, priority 2015, dated 2024)

Assays:
Type in all cases: in vivo
[1] = system: velvetleaf (Abutilon theophrasti); experiment: Test G Post-Emergence Protocol; conditions: Abutilon theophrasti, post-emergence, 312 h; for pest or weed control at 15.625 g/ha: 15.625 g ai/ha, evaluated after 13 days (100=total damage to plant; 0=no damage to plant), read-out: Velvetleaf damage rating; for pest or weed control at 62.5 g/ha: 62.5 g ai/ha, read-out: Velvetleaf damage rating (100=total damage to plant; 0=no damage to plant); for pest or weed control at 62.5 g/ha / pest or weed control at 250 g/ha: evaluated after 13 days; for pest or weed control at 250 g/ha: 250 g ai/ha, read-out: damage to plant, Velvetleaf (100=total damage to plant; 0=no damage to plant)
In short: (§1)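 Eight days post-sowing, plants received a spray of test compound (acetone/water 50:50, 0.5% Tween 20) at 15.625, 62.5 or 250 g/ha. Glasshouse regime thereafter: 24/16 °C, 14 h light, 65% humidity. Assessment after 13 days on a 0–100 damage scale.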

[2] = system: ivy-leaved morning glory (Ipomoea hederacea); experiment: Test G Post-Emergence Protocol; conditions: Ipomoea, post-emergence, 312 h; for pest or weed control at 15.625 g/ha: 15.625 g ai/ha, evaluated after 13 days (100=total damage to plant; 0=no damage to plant), read-out: Morningglory, Ivy-leaved damage rating; for pest or weed control at 62.5 g/ha: 62.5 g ai/ha, read-out: Morningglory, Ivy-leaved damage rating (100=total damage to plant; 0=no damage to plant); for pest or weed control at 62.5 g/ha / pest or weed control at 250 g/ha: evaluated after 13 days; for pest or weed control at 250 g/ha: 250 g ai/ha, read-out: damage to plant, Morningglory, Ivy-leaved (100=total damage to plant; 0=no damage to plant)
In short: as §1

[3] = system: redroot pigweed (Amaranthus retroflexus); experiment: Test G Post-Emergence Protocol; conditions: Amaranthus retroflexus, post-emergence, 312 h; for pest or weed control at 15.625 g/ha: 15.625 g ai/ha, evaluated after 13 days (100=total damage to plant; 0=no damage to plant), read-out: Pigweed, Redroot damage rating; for pest or weed control at 62.5 g/ha: 62.5 g ai/ha, read-out: Pigweed, Redroot damage rating (100=total damage to plant; 0=no damage to plant); for pest or weed control at 62.5 g/ha / pest or weed control at 250 g/ha: evaluated after 13 days; for pest or weed control at 250 g/ha: 250 g ai/ha, read-out: damage to plant, Pigweed, Redroot (100=total damage to plant; 0=no damage to plant)
In short: as §1

[4] = system: giant foxtail (Setaria faberi); experiment: Test G Post-Emergence Protocol; conditions: Setaria faberi, post-emergence, 312 h; for pest or weed control at 15.625 g/ha: 15.625 g ai/ha, evaluated after 13 days (100=total damage to plant; 0=no damage to plant), read-out: Foxtail, Giant damage rating; for pest or weed control at 62.5 g/ha: 62.5 g ai/ha, read-out: Foxtail, Giant damage rating (100=total damage to plant; 0=no damage to plant); for pest or weed control at 62.5 g/ha / pest or weed control at 250 g/ha: evaluated after 13 days; for pest or weed control at 250 g/ha: 250 g ai/ha, read-out: damage to plant, Foxtail, Giant (100=total damage to plant; 0=no damage to plant)
In short: as §1

[5] = system: barnyardgrass (Echinochloa crus-galli); experiment: Test G Post-Emergence Protocol; conditions: Echinochloa crus-galli, post-emergence, 312 h; for pest or weed control at 15.625 g/ha: 15.625 g ai/ha, evaluated after 13 days (100=total damage to plant; 0=no damage to plant), read-out: Barnyardgrass damage rating; for pest or weed control at 62.5 g/ha: 62.5 g ai/ha, read-out: Barnyardgrass damage rating (100=total damage to plant; 0=no damage to plant); for pest or weed control at 62.5 g/ha / pest or weed control at 250 g/ha: evaluated after 13 days; for pest or weed control at 250 g/ha: 250 g ai/ha, read-out: damage to plant, Barnyardgrass (100=total damage to plant; 0=no damage to plant)
In short: as §1

corn (Zea mays) [6] = experiment: Test G Post-Emergence Protocol; conditions: Zea mays, post-emergence, 312 h; for plant injury at 15.625 g/ha: 15.625 g ai/ha, evaluated after 13 days (100=total damage to plant; 0=no damage to plant), read-out: Corn damage rating; for plant injury at 62.5 g/ha: 62.5 g ai/ha, read-out: Corn damage rating (100=total damage to plant; 0=no damage to plant); for plant injury at 62.5 g/ha / plant injury at 250 g/ha: evaluated after 13 days; for plant injury at 250 g/ha: 250 g ai/ha, read-out: damage to plant, Corn (100=total damage to plant; 0=no damage to plant)
In short: as §1

[7] = system: velvetleaf (Abutilon theophrasti); experiment: Test G Pre-Emergence Protocol; conditions: Abutilon theophrasti, pre-emergence, 312 h, evaluated after 13 days; for pest or weed control at 15.625 g/ha: 15.625 g ai/ha; for pest or weed control at 15.625 g/ha / pest or weed control at 250 g/ha: read-out: Velvetleaf damage rating (100=total damage to plant; 0=no damage to plant); for pest or weed control at 62.5 g/ha: 62.5 g ai/ha, 100=total damage to plant, 0=no damage to plant, read-out: plant damage rating, Velvetleaf; for pest or weed control at 250 g/ha: 250 g ai/ha
In short: (§2)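 Scores are visual damage ratings from 0 (no damage) to 100 (total plant kill), taken 13 days after treatment. Compound was sprayed one day post-sowing at 15.625, 62.5 or 250 g/ha in 50:50 acetone/water with 0.5% Tween 20.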

[8] = system: ivy-leaved morning glory (Ipomoea hederacea); experiment: Test G Pre-Emergence Protocol; conditions: Ipomoea, pre-emergence, 312 h, evaluated after 13 days; for pest or weed control at 15.625 g/ha: 15.625 g ai/ha, read-out: Morning-glory, Ivy-leaved damage rating (100=total damage to plant; 0=no damage to plant); for pest or weed control at 62.5 g/ha: 62.5 g ai/ha, 100=total damage to plant, 0=no damage to plant, read-out: plant damage rating, Morningglory, Ivy-leaved; for pest or weed control at 250 g/ha: 250 g ai/ha, read-out: Morningglory, Ivy-leaved damage rating (100=total damage to plant; 0=no damage to plant)
In short: as §2

[9] = system: redroot pigweed (Amaranthus retroflexus); experiment: Test G Pre-Emergence Protocol; conditions: Amaranthus retroflexus, pre-emergence, 312 h, evaluated after 13 days; for pest or weed control at 15.625 g/ha: 15.625 g ai/ha; for pest or weed control at 15.625 g/ha / pest or weed control at 250 g/ha: read-out: Pigweed, Redroot damage rating (100=total damage to plant; 0=no damage to plant); for pest or weed control at 62.5 g/ha: 62.5 g ai/ha, 100=total damage to plant, 0=no damage to plant, read-out: plant damage rating, Pigweed, Redroot; for pest or weed control at 250 g/ha: 250 g ai/ha
In short: as §2

[10] = system: giant foxtail (Setaria faberi); experiment: Test G Pre-Emergence Protocol; conditions: Setaria faberi, pre-emergence, 312 h, evaluated after 13 days; for pest or weed control at 15.625 g/ha: 15.625 g ai/ha; for pest or weed control at 15.625 g/ha / pest or weed control at 250 g/ha: read-out: Foxtail, Giant damage rating (100=total damage to plant; 0=no damage to plant); for pest or weed control at 62.5 g/ha: 62.5 g ai/ha, 100=total damage to plant, 0=no damage to plant, read-out: plant damage rating, Foxtail, Giant; for pest or weed control at 250 g/ha: 250 g ai/ha
In short: as §2

[11] = system: barnyardgrass (Echinochloa crus-galli); experiment: Test G Pre-Emergence Protocol; conditions: Echinochloa crus-galli, pre-emergence, 312 h, evaluated after 13 days; for pest or weed control at 15.625 g/ha: 15.625 g ai/ha, read-out: Barnyard grass damage rating (100=total damage to plant; 0=no damage to plant); for pest or weed control at 62.5 g/ha: 62.5 g ai/ha, 100=total damage to plant, 0=no damage to plant, read-out: plant damage rating, Barnyardgrass; for pest or weed control at 250 g/ha: 250 g ai/ha, read-out: Barnyardgrass damage rating (100=total damage to plant; 0=no damage to plant)
In short: as §2

corn (Zea mays) [12] = experiment: Test G Pre-Emergence Protocol; conditions: Zea mays, pre-emergence, 312 h, evaluated after 13 days; for plant injury at 15.625 g/ha: 15.625 g ai/ha; for plant injury at 15.625 g/ha / plant injury at 250 g/ha: read-out: Corn damage rating (100=total damage to plant; 0=no damage to plant); for plant injury at 62.5 g/ha: 62.5 g ai/ha, 100=total damage to plant, 0=no damage to plant, read-out: plant damage rating, Corn; for plant injury at 250 g/ha: 250 g ai/ha
In short: as §2

Row | SMILES | pest or weed control at 15.625 g/ha [1] [%] | pest or weed control at 62.5 g/ha [1] [%] | pest or weed control at 250 g/ha [1] [%] | pest or weed control at 15.625 g/ha [2] [%] | pest or weed control at 62.5 g/ha [2] [%] | pest or weed control at 250 g/ha [2] [%] | pest or weed control at 15.625 g/ha [3] [%] | pest or weed control at 62.5 g/ha [3] [%] | pest or weed control at 250 g/ha [3] [%] | pest or weed control at 15.625 g/ha [4] [%] | pest or weed control at 62.5 g/ha [4] [%] | pest or weed control at 250 g/ha [4] [%] | pest or weed control at 15.625 g/ha [5] [%] | pest or weed control at 62.5 g/ha [5] [%] | pest or weed control at 250 g/ha [5] [%] | plant injury at 15.625 g/ha (corn (Zea mays) [6]) [%] | plant injury at 62.5 g/ha (corn (Zea mays) [6]) [%] | plant injury at 250 g/ha (corn (Zea mays) [6]) [%] | pest or weed control at 15.625 g/ha [7] [%] | pest or weed control at 62.5 g/ha [7] [%] | also measured
1 | COC(=O)c1cc([C@H]2CN(C)C(=O)[C@@H]2C(=O)Nc2ccccc2F)ccc1Cl (racemic) [Compound 1460] | 0 | 0 | 10 | 0 | 0 | 10 | 0 | 10 | 20 | 40 | 70 | 70 | 20 | 30 | 60 | 10 | 0 | 40 | 0 | 0 | pest or weed control at 250 g/ha [7]: 0%; pest or weed control at 15.625 g/ha [8]: 0%; pest or weed control at 62.5 g/ha [8]: 40%; pest or weed control at 250 g/ha [8]: 50%; pest or weed control at 15.625 g/ha [9]: 0%; pest or weed control at 62.5 g/ha [9]: 40%; pest or weed control at 250 g/ha [9]: 70%; pest or weed control at 15.625 g/ha [10]: 10%; pest or weed control at 62.5 g/ha [10]: 80%; pest or weed control at 250 g/ha [10]: 90%; pest or weed control at 15.625 g/ha [11]: 0%; pest or weed control at 62.5 g/ha [11]: 70%; pest or weed control at 250 g/ha [11]: 90%; plant injury at 15.625 g/ha (corn (Zea mays) [12]): 0%; plant injury at 62.5 g/ha (corn (Zea mays) [12]): 0%; plant injury at 250 g/ha (corn (Zea mays) [12]): 10%
2 | CN1C[C@@H](c2ccc(C(F)(F)F)cc2)[C@H](C(=O)Nc2ccnnc2)C1=O (racemic) [Compound 1518] | 0 | 0 | 0 | 0 | 0 | 0 | 0 | 0 | 0 | 0 | 0 | 0 | 0 | 0 | 0 | 0 | 0 | 0 | 0 | 0 | pest or weed control at 250 g/ha [7]: 0%; pest or weed control at 15.625 g/ha [8]: 0%; pest or weed control at 62.5 g/ha [8]: 0%; pest or weed control at 250 g/ha [8]: 0%; pest or weed control at 15.625 g/ha [9]: 0%; pest or weed control at 62.5 g/ha [9]: 0%; pest or weed control at 250 g/ha [9]: 0%; pest or weed control at 15.625 g/ha [10]: 0%; pest or weed control at 62.5 g/ha [10]: 0%; pest or weed control at 250 g/ha [10]: 0%; pest or weed control at 15.625 g/ha [11]: 0%; pest or weed control at 62.5 g/ha [11]: 0%; pest or weed control at 250 g/ha [11]: 0%; plant injury at 15.625 g/ha (corn (Zea mays) [12]): 0%; plant injury at 62.5 g/ha (corn (Zea mays) [12]): 0%; plant injury at 250 g/ha (corn (Zea mays) [12]): 0%
3 | CN1C[C@H](c2ccc(C(F)(F)F)cc2)[C@@H](C(=O)Nc2cccc(C(F)F)c2)C1=O (racemic) [Compound 1498] | 0 | 0 | 0 | 0 | 0 | 0 | 0 | 0 | 0 | 0 | 0 | 30 | 0 | 0 | 30 | 0 | 0 | 0 | 0 | 0 | pest or weed control at 250 g/ha [7]: 0%; pest or weed control at 15.625 g/ha [8]: 0%; pest or weed control at 62.5 g/ha [8]: 0%; pest or weed control at 250 g/ha [8]: 0%; pest or weed control at 15.625 g/ha [9]: 0%; pest or weed control at 62.5 g/ha [9]: 0%; pest or weed control at 250 g/ha [9]: 0%; pest or weed control at 15.625 g/ha [10]: 0%; pest or weed control at 62.5 g/ha [10]: 0%; pest or weed control at 250 g/ha [10]: 10%; pest or weed control at 15.625 g/ha [11]: 0%; pest or weed control at 62.5 g/ha [11]: 0%; pest or weed control at 250 g/ha [11]: 20%; plant injury at 15.625 g/ha (corn (Zea mays) [12]): 0%; plant injury at 62.5 g/ha (corn (Zea mays) [12]): 0%; plant injury at 250 g/ha (corn (Zea mays) [12]): 0%
